Consider eleven compounds from patent publication US11168073B2, “3,3-difluoroallylamines or salts thereof and pharmaceutical compositions comprising the same” (YUHAN CORPORATION, priority 2018, dated 2021).

What all share (type): biochemical
The target in test [1] is T1, recombinant human DAO (diamine oxidase) (Homo sapiens, UniProt P19801).
T1 construct: purchased R&D systems
T1 sequence (P19801 20-751): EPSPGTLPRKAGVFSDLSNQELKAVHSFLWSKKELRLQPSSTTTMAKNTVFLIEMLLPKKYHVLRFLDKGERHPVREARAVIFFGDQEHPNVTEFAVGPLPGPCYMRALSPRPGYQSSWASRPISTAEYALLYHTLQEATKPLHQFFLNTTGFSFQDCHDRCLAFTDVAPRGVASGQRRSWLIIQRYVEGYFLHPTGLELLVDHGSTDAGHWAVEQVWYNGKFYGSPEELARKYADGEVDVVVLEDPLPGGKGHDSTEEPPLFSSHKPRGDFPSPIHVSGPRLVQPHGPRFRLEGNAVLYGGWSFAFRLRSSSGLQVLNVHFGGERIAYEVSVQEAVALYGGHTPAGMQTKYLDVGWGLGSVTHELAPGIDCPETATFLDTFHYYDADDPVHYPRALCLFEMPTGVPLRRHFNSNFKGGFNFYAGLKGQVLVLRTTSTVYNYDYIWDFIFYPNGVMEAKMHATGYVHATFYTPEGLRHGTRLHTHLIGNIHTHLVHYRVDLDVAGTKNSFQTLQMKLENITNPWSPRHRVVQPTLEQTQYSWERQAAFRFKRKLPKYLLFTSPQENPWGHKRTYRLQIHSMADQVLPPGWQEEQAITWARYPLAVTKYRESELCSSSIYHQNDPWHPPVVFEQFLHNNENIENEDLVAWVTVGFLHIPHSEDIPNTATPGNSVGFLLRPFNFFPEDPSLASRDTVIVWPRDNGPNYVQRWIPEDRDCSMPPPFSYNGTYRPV
In words: Activity evaluation on recombinant human DAO (Amplex Red/HRP-coupled assay, 1 mM putrescine substrate). As to conditions: read-out: Inhibitory Activity (IC50, nM) DAO. The procedure, abridged:
(§1)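 Compounds preincubated 30 min at 37 °C with enzyme in 50 mM sodium phosphate pH 7.4 (final DMSO <1%, 8-point 1:3 dilutions); reaction started with 200 uM Amplex Red, 1 U/mL HRP and substrate (MAO-A 0.5 mM tyramine, MAO-B 1 mM benzylamine, DAO 1 mM putrescine). Resorufin fluorescence (ex 544/em 590 nm) followed over 1-2 h; IC50 from four-parameter logistic fit.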

Test [2] deals with T2, recombinant human MAO-B (monoamine oxidase-B) (Homo sapiens, UniProt P27338).
T2 construct: purchased Sigma-Aldrich
T2 sequence (P27338 1-520): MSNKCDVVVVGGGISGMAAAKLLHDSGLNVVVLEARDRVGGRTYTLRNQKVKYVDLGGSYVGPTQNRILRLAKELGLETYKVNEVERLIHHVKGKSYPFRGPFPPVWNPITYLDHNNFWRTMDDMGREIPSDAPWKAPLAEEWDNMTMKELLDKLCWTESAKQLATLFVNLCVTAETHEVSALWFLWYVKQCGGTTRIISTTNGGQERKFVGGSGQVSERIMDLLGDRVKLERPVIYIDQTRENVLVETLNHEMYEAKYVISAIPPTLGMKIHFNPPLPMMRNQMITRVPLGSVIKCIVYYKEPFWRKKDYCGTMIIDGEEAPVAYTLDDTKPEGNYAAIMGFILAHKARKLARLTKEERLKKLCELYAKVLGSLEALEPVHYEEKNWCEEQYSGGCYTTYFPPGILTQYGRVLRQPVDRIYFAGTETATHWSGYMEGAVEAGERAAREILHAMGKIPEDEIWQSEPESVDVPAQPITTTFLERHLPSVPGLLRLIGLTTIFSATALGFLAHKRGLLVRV
As to the kind of experiment: Activity evaluation on recombinant human MAO-B (Amplex Red/HRP-coupled assay, 1 mM benzylamine substrate). The note with it: read-out: Inhibitory Activity (IC50, nM) MAO-B. In outline:
as §1

Test [3] concerns the target T3, recombinant human MAO-A (monoamine oxidase-A) (Homo sapiens, UniProt P21397).
T3 construct: purchased Sigma-Aldrich
T3 sequence (P21397 1-527): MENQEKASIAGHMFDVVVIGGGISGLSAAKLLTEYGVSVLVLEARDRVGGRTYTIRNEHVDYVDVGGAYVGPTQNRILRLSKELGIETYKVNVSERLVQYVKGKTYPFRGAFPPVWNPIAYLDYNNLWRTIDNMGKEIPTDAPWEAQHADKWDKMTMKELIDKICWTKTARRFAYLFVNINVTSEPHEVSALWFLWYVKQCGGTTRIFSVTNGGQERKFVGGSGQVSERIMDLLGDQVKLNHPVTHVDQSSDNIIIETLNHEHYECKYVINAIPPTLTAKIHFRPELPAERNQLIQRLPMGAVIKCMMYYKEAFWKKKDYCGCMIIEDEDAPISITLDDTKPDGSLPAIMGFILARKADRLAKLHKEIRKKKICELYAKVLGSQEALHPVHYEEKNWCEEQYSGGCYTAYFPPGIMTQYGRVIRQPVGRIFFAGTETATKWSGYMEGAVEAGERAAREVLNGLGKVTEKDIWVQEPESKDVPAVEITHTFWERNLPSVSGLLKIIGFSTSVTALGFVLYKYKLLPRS
As to the kind of experiment: Activity evaluation on recombinant human MAO-A (Amplex Red/HRP-coupled assay, 0.5 mM tyramine substrate). The note with it: read-out: Inhibitory Activity (IC50, nM) MAO-A. In outline:
as §1

The target of test [4] is T4, recombinant human VAP-1 (Homo sapiens, UniProt Q16853).
T4 construct: purchased R&D systems
T4 sequence (Q16853 1-763): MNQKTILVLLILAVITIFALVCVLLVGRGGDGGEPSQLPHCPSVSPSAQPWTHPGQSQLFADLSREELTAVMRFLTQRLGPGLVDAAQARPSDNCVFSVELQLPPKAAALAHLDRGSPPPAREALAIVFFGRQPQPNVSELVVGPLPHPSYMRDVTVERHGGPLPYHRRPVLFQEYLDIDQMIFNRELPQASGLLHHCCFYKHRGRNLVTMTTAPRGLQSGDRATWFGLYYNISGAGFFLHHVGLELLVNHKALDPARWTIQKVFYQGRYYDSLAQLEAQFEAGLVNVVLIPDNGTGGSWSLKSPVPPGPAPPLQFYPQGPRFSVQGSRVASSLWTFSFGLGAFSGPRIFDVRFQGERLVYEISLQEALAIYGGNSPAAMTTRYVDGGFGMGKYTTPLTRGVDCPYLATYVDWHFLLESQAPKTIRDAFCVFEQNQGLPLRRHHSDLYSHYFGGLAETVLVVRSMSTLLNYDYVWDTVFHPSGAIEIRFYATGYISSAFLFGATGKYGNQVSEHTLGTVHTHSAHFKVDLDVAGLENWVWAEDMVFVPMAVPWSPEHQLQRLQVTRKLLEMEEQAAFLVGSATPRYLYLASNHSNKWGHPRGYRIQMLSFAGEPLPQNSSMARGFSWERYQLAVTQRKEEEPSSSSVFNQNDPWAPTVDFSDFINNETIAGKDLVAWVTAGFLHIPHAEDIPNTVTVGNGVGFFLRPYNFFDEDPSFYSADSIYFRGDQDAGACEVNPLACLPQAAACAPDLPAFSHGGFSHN
As to the kind of experiment: Activity evaluation on recombinant human VAP-1 (Amplex Red/HRP-coupled hydrogen peroxide assay, benzylamine substrate). The note with it: read-out: Inhibitory Activity (IC50, nM) human VAP-1. In outline:
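Recombinant human VAP-1 in 50 mM sodium phosphate pH 7.4 preincubated 30 min at 37 °C with compound (8-point 1:3 series, <1% DMSO), then 1 mM benzylamine, 200 uM Amplex Red, 1 U/mL HRP added. H2O2-derived resorufin fluorescence (ex 544/em 590) followed 1–2 h; IC50 from four-parameter fit of rate inhibition.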

[5] abbreviates: recombinant human VAP-1, 30 min preincubation at 37° C., 1 mM benzylamine.
The mark [6] stands for this setting: recombinant human VAP-1, benzylamine substrate.

Counter-ions that a name gives are not always drawn. Like-named read-outs stand apart in the source and are kept apart here.

One may read the IC50 as the concentration that inhibits the measured activity by half. For `CN(C)c1ccc(-c2ccnc(-n3cnn(CC(CN)=C(F)F)c3=O)c2)cn1` [Example 57, 2-[2-(aminomethyl)-3,3-difluoro-allyl]-4-[4-[6-(dimethylamino)-3-pyridyl]-2-pyridyl]-1,2,4-triazol-3-one Trifluoroacetate], the IC50 was 30 nM in test [1] (1 mM putrescine), 56400 nM in test [2] (1 mM benzylamine), above 100000 nM in test [3] (0.5 mM tyramine) and 0.9 nM in test [4] (setting [5]).
As to `CCOc1ncc(-c2ccc(Cn3cnn(CC(CN)=C(F)F)c3=O)s2)cn1` [Example 117, 2-[2-(aminomethyl)-3,3-difluoro-allyl]-4-[[5-(2-ethoxypyrimidin-5-yl)-2-thienyl]methyl]-1,2,4-triazol-3-one Trifluoroacetate], the IC50 in test [1] (1 mM putrescine) is 7100 nM; in test [2] (1 mM benzylamine), above 100000 nM; in test [3] (0.5 mM tyramine), above 100000 nM; in test [4] (setting [5]), 1.1 nM.
Take `NCC(Cn1ncn(Cc2cc3ccc(-c4ccc(N5CCNCC5)cc4)cc3s2)c1=O)=C(F)F` [Example 198, 2-[2-(aminomethyl)-3,3-difluoro-allyl]-4-[[6-(4-piperazin-1-ylphenyl)benzothiophen-2-yl]methyl]-1,2,4-triazol-3-one Ditrifluoroacetate]: the IC50 in test [1] (1 mM putrescine substrate) is 880 nM; in test [2] (1 mM benzylamine substrate) it was 23000 nM; in test [3] (0.5 mM tyramine substrate), above 100000 nM; in test [4] (setting [6]) it was 4.6 nM.
On to `NCC(Cn1ncn(Cc2ccc(-c3cccc(N4CCNCC4)c3)s2)c1=O)=C(F)F` [Example 107, 2-[2-(aminomethyl)-3,3-difluoro-allyl]-4-[[5-(3-piperazin-1-ylphenyl)-2-thienyl]methyl]-1,2,4-triazol-3-one Ditrifluoroacetate], for which the IC50 in test [1] (1 mM putrescine) was 12000 nM; in test [2] (1 mM benzylamine), 46000 nM; in test [3] (0.5 mM tyramine), above 100000 nM; in test [4] (setting [5]) it was 3.5 nM.
In the case of `CN1C(=O)CCc2cc(-c3cc(-n4cnn(CC(CN)=C(F)F)c4=O)ccn3)ccc21` [Example 66, 6-[4-[1-[2-(aminomethyl)-3,3-difluoro-allyl]-5-oxo-1,2,4-triazol-4-yl]-2-pyridyl]-1-methyl-3,4-dihydroquinolin-2-one Trifluoroacetate], the IC50 in test [1] (1 mM putrescine) was 250 nM; in test [2] (1 mM benzylamine) it was 4800 nM; in test [3] (0.5 mM tyramine), above 100000 nM; in test [4] (setting [5]), 0.6 nM.
`COc1cc(-c2ccc(Cn3cnn(CC(CN)=C(F)F)c3=O)s2)cc(OC)c1OC` [Example 105, 2-[2-(aminomethyl)-3,3-difluoro-allyl]-4-[[5-(3,4,5-trimethoxyphenyl)-2-thienyl]methyl]-1,2,4-triazol-3-one Trifluoroacetate]: the IC50 is above 10000 nM in test [1] (1 mM putrescine), 6500 nM in test [2] (1 mM benzylamine), above 100000 nM in test [3] (0.5 mM tyramine) and 1.5 nM in test [4] (setting [5]).
For `CS(=O)(=O)c1ccc(-c2ccc(-n3cnn(CC(CN)=C(F)F)c3=O)c(F)c2)cc1` [Example 31, 2-[2-(aminomethyl)-3,3-difluoro-allyl]-4-[2-fluoro-4-(4-methylsulfonylphenyl)phenyl]-1,2,4-triazol-3-one Trifluoroacetate], in that order: 59 nM, 870 nM, above 100000 nM and 0.2 nM.
Regarding `Cc1cc(-c2ccc(-n3cnn(CC(CN)=C(F)F)c3=O)cc2F)cc2c1NC(=O)CC2` [Example 29, 6-[4-[1-[2-(aminomethyl)-3,3-difluoro-allyl]-5-oxo-1,2,4-triazol-4-yl]-2-fluoro-phenyl]-8-methyl-3,4-dihydro-1H-quinolin-2-one Trifluoroacetate], the IC50 in test [1] (1 mM putrescine) is 200 nM; in test [2] (1 mM benzylamine), 150 nM; in test [3] (0.5 mM tyramine), above 100000 nM; in test [4] (setting [5]), 0.2 nM.
For the compound `Cc1cc(-c2ccc(N3CCNCC3)cc2)sc1Cn1cnn(CC(CN)=C(F)F)c1=O` [Example 155, 2-[2-(aminomethyl)-3,3-difluoro-allyl]-4-[[3-methyl-5-(4-piperazin-1-ylphenyl)-2-thienyl]methyl]-1,2,4-triazol-3-one Ditrifluoroacetate], the IC50 is 50000 nM in test [1] (1 mM putrescine), above 100000 nM in test [2] (1 mM benzylamine), above 100000 nM in test [3] (0.5 mM tyramine) and 56 nM in test [4] (setting [5]).
On to `NCC(Cn1ncn(-c2cnc(-c3ccc(N4CCNCC4)cc3)cn2)c1=O)=C(F)F` [Example 90, 2-[2-(aminomethyl)-3,3-difluoro-allyl]-4-[5-(4-piperazin-1-ylphenyl)pyrazin-2-yl]-1,2,4-triazol-3-one Ditrifluoroacetate], for which the IC50 in test [1] (1 mM putrescine) was 30 nM; in test [2] (1 mM benzylamine), above 100000 nM; in test [3] (0.5 mM tyramine) it was above 100000 nM; in test [4] (setting [5]) it was 1.3 nM.
In the case of `CCn1cc(-c2ccc(-c3csc(Cn4cnn(CC(CN)=C(F)F)c4=O)c3)cc2)cn1` [Example 288, 2-[2-(aminomethyl)-3,3-difluoro-allyl]-4-[[4-[4-(1-ethylpyrazol-4-yl)phenyl]-2-thienyl]methyl]-1,2,4-triazol-3-one Trifluoroacetate], the IC50 in test [1] (1 mM putrescine substrate) stood at 3780 nM; in test [2] (1 mM benzylamine substrate), 3230 nM; in test [3] (0.5 mM tyramine substrate), 2910 nM; in test [4] (setting [6]), 2.6 nM.
